Measurements published in patent publication US20240226063A1, “SOLUBLE ANALOGUES OF 6BIO THEREOF AND IMPLEMENTATION THEREOF” (JAWAHARLAL NEHRU CENTRE FOR ADVANCED SCIENTIFIC RESEARCH, priority 2021, published 2024).
Entries after “also recorded” stand apart in the source; their conditions may differ.

Experiments:
Syngap1^+/− mice [1] = assay: Open field test (hyperactivity/motor function and anxiety); type: in vivo; settings: 5 mg/kg intraperitoneal
Description: (§1) The ability of 6-BIO on the behavioural deficits related to neurodevelopmental disorders was observed based on its theoretical ability to correct synaptic plasticity, EGABA, and behavioural dysfunction in mice with mutated Syngap1 gene. Two populations of mice tested were: wild type (WT) mice and mice with mutated Syngap1 gene referred to as Syngap1^+/− mice. […] In the control group and the Syngap1^+/− mice, the subjects were administered with 5 mg/kg of 6-BIO based on the bodyweight of the subject. […] For example, 2-9, male mice were used.
Syngap1^+/− mice in groups I, II and III. […]

Syngap1^+/− mice [2] = assay: Novel object recognition test (memory); type: in vivo; settings: for Novel Object Recognition (memory, discrimination index): 5 mg/kg intraperitoneal
Description: as §1
The wild type and Syngap1^+/− mice in the absence of any treatment were compared with the mice intra-peritoneally injected with 6-BIO and their behaviour was recorded with regards to recognition of a familiar object versus reaction to a novel object.

Syngap1^+/− mice [3] = assay: Social novelty test (social interaction and social preference); type: in vivo; settings: for Social Interference (social interaction, time with stranger 1 vs empty jar) / Social Preference (time with stranger 2 vs stranger 1): 5 mg/kg intraperitoneal
Description: as §1
Social Novelty Test: Similar to the novel object recognition in Example 2, the social novelty test was performed for all age groups at 80 days. The social novelty test was performed based on the social interaction (SI) and social preference (SP) of the control wild type and Syngap1^+/− mice and wild type and Syngap1^+/− treated with 6-BIO. The social interaction was observed based on the time spent by the mice in isolation in comparison to time spent with one other mouse (stranger 1) and the social preference was observed based on the time spent with two different mice (stranger 1 and stranger 2)

Syngap1^+/− mice [4] = assay: Fluoroethyl-based seizure threshold; type: in vivo; settings: intraperitoneal, Group III (P30-80), recorded P80
Description: For investigating the effect of 6-BIO on the wild type and Syngap1^+/− mice in group III (P30-P80), mice were injected intraperitoneally with 6-BIO. The subsequent fluoroethyl-based seizure threshold i.e., susceptibility of mice to epileptic seizures was evaluated and plotted as grouped data showing individual points for the involuntary and rhythmic muscular contractions and relaxations referred to as clonus.

Syngap1^+/− mice [5] = assay: Long term potential; type: in vivo; settings: 5 mg/kg intraperitoneal
Syngap1^+/− mice [6] = assay: EGABA, Cl^− reversal potential; type: in vivo; settings: 5 mg/kg intraperitoneal, Group I (P10-16), recorded P16
MPTP mice = assay: MPTP mouse model of Parkinsonism (rotarod and open field test); type: in vivo; settings: 5 mg/kg intraperitoneal, administered along with MPTP
Description: The effect of 6-BIO on neurodegenerative disorders such as Parkinson's was evaluated based on testing the ability of 6-BIO on toxic protein aggregates such as the SNCA/a-synuclein protein in mice (FIG. 9) and the modulation of the autophagy flux (FIG. 10). MPTP is a widely accepted mouse model to study Parkinsonism. […] For the study, mice were intraperitoneally injected with 6-BIO at a concentration of 5 mg/kg based on the body weight of the mice.
FIG. 9 and FIG. 10 illustrated the results observed on the effect of 6-BIO and its derivatives on neurodegenerative disorders. FIG. 9 depicts the effect of administration of 5 mg/kg of 6-BIO on (A) the latency to fall of various cohorts namely placebo mice, MPTP mice (Parkinsonian mice) and the MPTP mice administered with 6-BIO (MPTP+Co) was assessed by rotarod test (B) Representative trajectory maps of all mentioned cohorts as analysed by open field test. (C) Periphery distance travelled by all indicated cohorts as assessed by open field test. […]

autophagy flux = assay: Autophagy flux (levels of autophagosomes and autolysosomes); type: cell-based; settings: cells, compared to growth media control
From the text: The derivatives of 6-BIO such as the compound 6-methoxyindirubin oxime (6-MIO), compound 50 and compound 51 were synthesized to improve their water solubility. The effect of 6-BIO and the aforementioned derivatives of 6-BIO on autophagy flux in the form of autophagosomes and autolysosomes are depicted in FIG. 10. […] Thus, the derivatives have a better potency to restore neuronal function to wild type level in neurodevelopmental disorders and play a neuroprotective role in neurodegeneration.

[7] = Group II (P10-80), recorded P42/P80
[8] = Group III (P30-80), recorded P80

Compound: O=C1Nc2cc(Br)ccc2/C1=C1/Nc2ccccc2/C1=N\O [6-BIO, (2′Z, 3′E)-6-Bromoindirubin-3′-oxime]
- Open field, Anxiety (number of entries in the centre) (Syngap1^+/− mice [1]; Group I (P10-16), recorded P16): anxiety was corrected
- Open field, Motor function (hyperactivity, total distance travelled) (Syngap1^+/− mice [1]; Group I (P10-16), recorded P16): hyperactivity was corrected
- Open field, Anxiety (number of entries in the centre) (Syngap1^+/− mice [1]; Group I (P10-16), recorded P80): anxiety was corrected; also recorded: ameliorates
- Open field, Motor function (hyperactivity, total distance travelled) (Syngap1^+/− mice [1]; Group I (P10-16), recorded P80): partial correction of hyperactivity; also recorded: ameliorates hyperactivity
- Open field, Anxiety (number of entries in the centre) (Syngap1^+/− mice [1]; [7]): anxiety was corrected
- Open field, Motor function (hyperactivity, total distance travelled) (Syngap1^+/− mice [1]; [7]): partial correction was observed
- Open field, Anxiety (number of entries in the centre) (Syngap1^+/− mice [1]; [8]): partial correction of the anxiety
- Open field, Motor function (hyperactivity, total distance travelled) (Syngap1^+/− mice [1]; [8]): no rescue behaviour
- Novel Object Recognition (memory, discrimination index) (Syngap1^+/− mice [2]; Group I (P10-16), recorded P80): Corrected
- Novel Object Recognition (memory, discrimination index) (Syngap1^+/− mice [2]; [7]): Corrected
- Novel Object Recognition (memory, discrimination index) (Syngap1^+/− mice [2]; Group III (P30-80), recorded P80, 5 mg/kg): corrected the memory deficits
- Memory deficits (novel object recognition, discrimination index) (Syngap1^+/− mice [2]; all three age groups, behaviour at 80 days): substantially corrected memory deficits
- Social Interference (social interaction, time with stranger 1 vs empty jar) (Syngap1^+/− mice [3]; Group I (P10-16), recorded P80): Corrected
- Social Preference (time with stranger 2 vs stranger 1) (Syngap1^+/− mice [3]; Group I (P10-16), recorded P80, 5 mg/kg): lack of improvement
- Social Interference (social interaction, time with stranger 1 vs empty jar) (Syngap1^+/− mice [3]; [7]): Corrected
- Social Preference (time with stranger 2 vs stranger 1) (Syngap1^+/− mice [3]; [7]): Corrected
- Social Interference (social interaction, time with stranger 1 vs empty jar) (Syngap1^+/− mice [3]; [8]): Corrected
- Social Preference (time with stranger 2 vs stranger 1) (Syngap1^+/− mice [3]; [8]): Corrected
- Social interaction: time spent with stranger 1 as compared to the empty jar (Syngap1^+/− mice [3]; all age groups, recorded at P80): comparable to wild type mice
- Seizure threshold (fluoroethyl-based, tonic-clonic) (Syngap1^+/− mice [4]): corrected the seizure threshold
- Long term potential (Syngap1^+/− mice [5]; [7]): Corrected
- Long term potential (Syngap1^+/− mice [5]; [8]): Corrected
- EGABA, Cl^− reversal potential (Syngap1^+/− mice [6]): Corrected
- Effect on MPTP-induced neurodegeneration (rotarod latency to fall, open field periphery distance) (MPTP mice): protects neurons from degeneration
- Levels of autophagosomes (autophagy flux): increased

Compound: COc1ccc2c(c1)NC(=O)C2=C1Nc2ccccc2C1=NO [6-MIO, 6-methoxyindirubin oxime]
- Levels of autolysosomes (autophagy flux): increased
- Levels of autophagosomes (autophagy flux): increased

Compound: O=C1Nc2cc(Br)ccc2/C1=C1/Nc2ccccc2/C1=N\O [compound 50, (2Z,3E)-6′-bromo-3-(hydroxyimino)-[2,3′-biindolinylidene]-2′-one]
- Levels of autolysosomes (autophagy flux): increased

Compound: O=C1Nc2cc(Br)ccc2/C1=C1/Nc2ccccc2/C1=N\OCCO [compound 51, (2Z,3E)-6′-bromo-3-((2-hydroxyethoxy)imino)-[2,3′-biindolinylidene]-2′-one]
- Levels of autolysosomes (autophagy flux): increased
- Levels of autophagosomes (autophagy flux): increased
